# Laboratory results as given in PubChem BioAssay (NCI).
#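 1) Cells in 96-well plates. 2) Compound, 48 h, 5 concentrations. 3) Linear interpolation between surrounding doses. 4) Unreached endpoint = highest concentration. GI50 marks 50% less growth. TGI is the concentration that stops growth completely.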
# Assays:
# Assay in all cases: inhibition of tumour cell growth, NCI panel, 48 h
# SK-MEL-28 melanoma = test system: SK-MEL-28 melanoma
# LOX IMVI melanoma = test system: LOX IMVI melanoma
# UO-31 renal = test system: UO-31 renal
# MOLT-4 leukemia = test system: MOLT-4 leukemia
# DU-145 prostate = test system: DU-145 prostate
# OVCAR-4 ovarian = test system: OVCAR-4 ovarian
# HS 578T breast = test system: HS 578T breast
# SN12C renal = test system: SN12C renal
# OVCAR-3 ovarian = test system: OVCAR-3 ovarian
# MDA-MB-231 breast = test system: MDA-MB-231 breast
# MDA-MB-435 = test system: MDA-MB-435
# NCI-H23 lung = test system: NCI-H23 lung
# ACHN renal = test system: ACHN renal
# NCI-H460 lung = test system: NCI-H460 lung
# SW-620 colon = test system: SW-620 colon
# SNB-19 CNS = test system: SNB-19 CNS
# TK-10 renal = test system: TK-10 renal
# COLO 205 colon = test system: COLO 205 colon
# RXF 393 renal = test system: RXF 393 renal
# MCF7 breast = test system: MCF7 breast
# HCT-15 colon = test system: HCT-15 colon
# K-562 leukemia = test system: K-562 leukemia
# SK-MEL-2 melanoma = test system: SK-MEL-2 melanoma
# HCC-2998 colon = test system: HCC-2998 colon
# IGROV1 ovarian = test system: IGROV1 ovarian
# SK-MEL-5 melanoma = test system: SK-MEL-5 melanoma
# SF-295 CNS = test system: SF-295 CNS
# SNB-75 CNS = test system: SNB-75 CNS
# CAKI-1 renal = test system: CAKI-1 renal
# HOP-62 NSCLC = test system: HOP-62 NSCLC
# NCI/ADR-RES ovarian = test system: NCI/ADR-RES ovarian
# SF-268 CNS = test system: SF-268 CNS
# SK-OV-3 ovarian = test system: SK-OV-3 ovarian
# PC-3 prostate = test system: PC-3 prostate
# UACC-62 melanoma = test system: UACC-62 melanoma
# OVCAR-5 ovarian = test system: OVCAR-5 ovarian
# UACC-257 melanoma = test system: UACC-257 melanoma
# EKVX NSCLC = test system: EKVX NSCLC
# NCI-H226 lung = test system: NCI-H226 lung
# BT-549 breast = test system: BT-549 breast
# MALME-3M melanoma = test system: MALME-3M melanoma
# T-47D breast = test system: T-47D breast
# KM12 colon = test system: KM12 colon
# SF-539 CNS = test system: SF-539 CNS
# A498 renal = test system: A498 renal
# HOP-92 NSCLC = test system: HOP-92 NSCLC
smiles,measurement,setting,value
CCN(CC)CCNC(=O)c1cn2ncnc(Oc3ccc(NC(=O)Nc4ccc(Cl)c(C(F)(F)F)c4)cc3)c2c1C,GI50,SK-MEL-28 melanoma,1480 nM
same,TGI,SK-MEL-28 melanoma,2800 nM
same,GI50,LOX IMVI melanoma,1360 nM
same,TGI,LOX IMVI melanoma,2820 nM
same,GI50,UO-31 renal,1720 nM
same,TGI,UO-31 renal,3150 nM
same,GI50,MOLT-4 leukemia,738 nM
same,TGI,MOLT-4 leukemia,2400 nM
same,GI50,DU-145 prostate,1690 nM
same,TGI,DU-145 prostate,3100 nM
same,GI50,OVCAR-4 ovarian,1790 nM
same,TGI,OVCAR-4 ovarian,3420 nM
same,GI50,HS 578T breast,1490 nM
same,TGI,HS 578T breast,3920 nM
same,GI50,SN12C renal,1600 nM
same,TGI,SN12C renal,3140 nM
same,GI50,OVCAR-3 ovarian,1930 nM
same,TGI,OVCAR-3 ovarian,3510 nM
same,GI50,MDA-MB-231 breast,1870 nM
same,TGI,MDA-MB-231 breast,3520 nM
same,GI50,MDA-MB-435,1630 nM
same,TGI,MDA-MB-435,3000 nM
same,GI50,NCI-H23 lung,1800 nM
same,TGI,NCI-H23 lung,3490 nM
same,GI50,ACHN renal,1730 nM
same,TGI,ACHN renal,3100 nM
same,GI50,NCI-H460 lung,1720 nM
same,TGI,NCI-H460 lung,3320 nM
same,GI50,SW-620 colon,2230 nM
same,TGI,SW-620 colon,3960 nM
same,GI50,SNB-19 CNS,1860 nM
same,TGI,SNB-19 CNS,3270 nM
same,GI50,TK-10 renal,2110 nM
same,TGI,TK-10 renal,3920 nM
same,GI50,COLO 205 colon,1780 nM
same,TGI,COLO 205 colon,3560 nM
same,GI50,RXF 393 renal,1490 nM
same,TGI,RXF 393 renal,3020 nM
same,GI50,MCF7 breast,1220 nM
same,TGI,MCF7 breast,2770 nM
same,GI50,HCT-15 colon,1620 nM
same,TGI,HCT-15 colon,3100 nM
same,GI50,K-562 leukemia,383 nM
same,TGI,K-562 leukemia,1650 nM
same,GI50,SK-MEL-2 melanoma,1970 nM
same,TGI,SK-MEL-2 melanoma,4150 nM
same,GI50,HCC-2998 colon,2240 nM
same,TGI,HCC-2998 colon,3920 nM
same,GI50,IGROV1 ovarian,1690 nM
same,TGI,IGROV1 ovarian,3240 nM
same,GI50,SK-MEL-5 melanoma,1760 nM
same,TGI,SK-MEL-5 melanoma,3220 nM
same,GI50,SF-295 CNS,1800 nM
same,TGI,SF-295 CNS,3330 nM
same,GI50,SNB-75 CNS,64.5 nM
same,TGI,SNB-75 CNS,1520 nM
same,GI50,CAKI-1 renal,1670 nM
same,TGI,CAKI-1 renal,3070 nM
same,GI50,HOP-62 NSCLC,1760 nM
same,TGI,HOP-62 NSCLC,3560 nM
same,GI50,NCI/ADR-RES ovarian,1980 nM
same,TGI,NCI/ADR-RES ovarian,3820 nM
same,GI50,SF-268 CNS,1590 nM
same,TGI,SF-268 CNS,3140 nM
same,GI50,SK-OV-3 ovarian,1850 nM
same,TGI,SK-OV-3 ovarian,3460 nM
same,GI50,PC-3 prostate,1310 nM
same,TGI,PC-3 prostate,2800 nM
same,GI50,UACC-62 melanoma,1810 nM
same,TGI,UACC-62 melanoma,3430 nM
same,GI50,OVCAR-5 ovarian,1990 nM
same,TGI,OVCAR-5 ovarian,3480 nM
same,GI50,UACC-257 melanoma,1630 nM
same,TGI,UACC-257 melanoma,3420 nM
same,GI50,EKVX NSCLC,1690 nM
same,TGI,EKVX NSCLC,3120 nM
same,GI50,NCI-H226 lung,1760 nM
same,TGI,NCI-H226 lung,3890 nM
same,GI50,BT-549 breast,1610 nM
same,TGI,BT-549 breast,3090 nM
same,GI50,MALME-3M melanoma,1290 nM
same,TGI,MALME-3M melanoma,2840 nM
same,GI50,T-47D breast,1800 nM
same,TGI,T-47D breast,4420 nM
same,GI50,KM12 colon,1690 nM
same,TGI,KM12 colon,3250 nM
same,GI50,SF-539 CNS,1100 nM
same,TGI,SF-539 CNS,2320 nM
same,GI50,A498 renal,1390 nM
same,TGI,A498 renal,2740 nM
same,GI50,HOP-92 NSCLC,1190 nM
same,TGI,HOP-92 NSCLC,2690 nM
